# Measured values: patent US4864023A, “Pyrido(3,2,1-IJ)-1,3,4-benzoxadiazine derivatives” (priority 1988, dated 1989)
# Key:
# Assay in all cases: in vitro antibacterial activity, standard agar dilution method
# Assay type in all cases: cell-based
# [1] = test system: Bacillus subtilis PCI 219; settings: PCI219, aerobic, read-out: minimum inhibitory concentration (MIC)
# [2] = test system: Staphylococcus aureus FDA 209P JC-1; settings: FDA209P; Staphylococcus aureus FDA 209P JC-1; aerobic; agar dilution; read-out: minimum inhibitory concentration (MIC)
# [3] = test system: Staphylococcus aureus NR 2855; settings: NR2855; Staphylococcus aureus NR 2855; aerobic; agar dilution; read-out: minimum inhibitory concentration (MIC)
# [4] = test system: Staphylococcus aureus Smith; settings: Staphylococcus aureus Smith; aerobic; agar dilution; read-out: minimum inhibitory concentration (MIC)
# [5] = test system: Staphylococcus epidermidis IFO 12993; settings: IFO12993, aerobic, read-out: minimum inhibitory concentration (MIC)
# [6] = test system: Staphylococcus epidermidis NR 2942; settings: NR2942, aerobic, read-out: minimum inhibitory concentration (MIC)
# [7] = test system: Enterococcus faecalis NR 2943; settings: NR2943, aerobic, read-out: minimum inhibitory concentration (MIC)
# [8] = test system: Alcaligenes faecalis IFO 13111; settings: IFO13111, aerobic, read-out: minimum inhibitory concentration (MIC)
# [9] = test system: Citrobacter freundii IFO 12681; settings: IFO12681, aerobic, read-out: minimum inhibitory concentration (MIC)
# [10] = test system: Enterobacter aerogenes NR 2945; settings: Klebsiella aerogenes, NR2945, aerobic, read-out: minimum inhibitory concentration (MIC)
# [11] = test system: Enterobacter cloacae NR 2946; settings: NR2946, aerobic, read-out: minimum inhibitory concentration (MIC)
# [12] = test system: Escherichia coli NIHJ JC-2; settings: NIHJJC2, aerobic, read-out: minimum inhibitory concentration (MIC)
# Escherichia coli NR 2630 = settings: NR2630; Escherichia coli NR 2630; aerobic; agar dilution; read-out: minimum inhibitory concentration (MIC)
# [13] = test system: Klebsiella pneumoniae FDA PCI 602; settings: FDAPCI602, aerobic, read-out: minimum inhibitory concentration (MIC)
# [14] = test system: Bordetella bronchiseptica ATCC 4617; settings: ATCC4617, aerobic, read-out: minimum inhibitory concentration (MIC)
# [15] = test system: Proteus rettgeri ATCC 14505; settings: Providencia rettgeri, ATCC14505, aerobic, read-out: minimum inhibitory concentration (MIC)
# [16] = test system: Proteus vulgaris OX19 ATCC 6898; settings: ATCC6898, aerobic, read-out: minimum inhibitory concentration (MIC)
# [17] = test system: Pseudomonas aeruginosa A3; settings: aerobic, read-out: minimum inhibitory concentration (MIC)
# [18] = test system: Pseudomonas aeruginosa NR 2950; settings: NR2950, aerobic, read-out: minimum inhibitory concentration (MIC)
# [19] = test system: Serratia marcescens IFO 12648; settings: IFO12648, aerobic, read-out: minimum inhibitory concentration (MIC)
# [20] = test system: Salmonella typhimurium IFO 12529; settings: Salmonella enterica, aerobic, read-out: minimum inhibitory concentration (MIC)
SMILES,MIC [1],MIC [2],MIC [3],MIC [4],MIC [5],MIC [6],MIC [7],MIC [8],MIC [9],MIC [10],MIC [11],MIC [12],MIC (Escherichia coli NR 2630),MIC [13],MIC [14],MIC [15],MIC [16],MIC [17],MIC [18],MIC [19],further results
"CC(=O)CN1CCN(c2c(F)cc3c(=O)c(C(=O)O)cn4c3c2OCN4C)CC1 [Example 40, 9-fluoro-3-methyl-7-oxo-10-[4-(2-oxo-n-propyl)-1-piperazinyl]-2,3-dihydro-7H-pyrido[3,2,1-ij]-1,3,4-benzoxadiazine-6-carboxylic acid]",0.1 µg/mL,1.56 µg/mL,0.78 µg/mL,0.78 µg/mL,1.56 µg/mL,0.78 µg/mL,12.5 µg/mL,6.25 µg/mL,0.2 µg/mL,0.1 µg/mL,0.39 µg/mL,0.39 µg/mL,0.2 µg/mL,1.56 µg/mL,1.56 µg/mL,3.13 µg/mL,0.2 µg/mL,1.56 µg/mL,12.5 µg/mL,1.56 µg/mL,MIC [20]: 0.39 µg/mL
CN1COc2c(N3CCN(CC(=O)c4ccccc4)CC3)c(F)cc3c(=O)c(C(=O)O)cn1c23 [Example 41],3.13 µg/mL,6.25 µg/mL,6.25 µg/mL,6.25 µg/mL,6.25 µg/mL,12.5 µg/mL,100 µg/mL,50 µg/mL,0.39 µg/mL,0.1 µg/mL,0.78 µg/mL,0.78 µg/mL,0.39 µg/mL,3.13 µg/mL,25 µg/mL,3.13 µg/mL,1.56 µg/mL,3.13 µg/mL,12.5 µg/mL,3.13 µg/mL,MIC [20]: 0.78 µg/mL
CCCN1CCN(c2c(F)cc3c(=O)c(C(=O)O)cn4c3c2OCN4C)CC1 [Example 43],0.1 µg/mL,0.78 µg/mL,0.78 µg/mL,0.39 µg/mL,0.39 µg/mL,0.39 µg/mL,6.25 µg/mL,0.78 µg/mL,0.1 µg/mL,0.1 µg/mL,0.1 µg/mL,0.1 µg/mL,0.05 µg/mL,0.39 µg/mL,0.39 µg/mL,0.78 µg/mL,0.1 µg/mL,0.78 µg/mL,6.25 µg/mL,0.2 µg/mL,MIC [20]: 0.1 µg/mL
C=CCN1CCN(c2c(F)cc3c(=O)c(C(=O)O)cn4c3c2OCN4C)CC1 [Example 46],0.05 µg/mL,0.78 µg/mL,0.39 µg/mL,0.39 µg/mL,0.78 µg/mL,0.39 µg/mL,6.25 µg/mL,1.56 µg/mL,0.1 µg/mL,0.1 µg/mL,0.2 µg/mL,0.1 µg/mL,0.05 µg/mL,0.78 µg/mL,0.39 µg/mL,1.56 µg/mL,0.05 µg/mL,1.56 µg/mL,6.25 µg/mL,0.39 µg/mL,MIC [20]: 0.1 µg/mL

# Now from value to molecule, other results behind:
MIC [1],MIC [2],MIC [3],MIC [4],MIC [5],MIC [6],MIC [7],MIC [8],MIC [9],MIC [10],MIC [11],MIC [12],MIC (Escherichia coli NR 2630),MIC [13],MIC [14],MIC [15],MIC [16],MIC [17],MIC [18],MIC [19],SMILES,further results
0.025 µg/mL,0.39 µg/mL,0.78 µg/mL,0.39 µg/mL,0.39 µg/mL,0.39 µg/mL,12.5 µg/mL,6.25 µg/mL,0.78 µg/mL,0.05 µg/mL,0.78 µg/mL,0.78 µg/mL,0.025 µg/mL,1.56 µg/mL,0.78 µg/mL,3.13 µg/mL,0.05 µg/mL,3.13 µg/mL,12.5 µg/mL,1.56 µg/mL,"CN1COc2c(N3CCS(=O)(=O)CC3)c(F)cc3c(=O)c(C(=O)O)cn1c23 [Example 39, 10-(1,1-dioxide-4-thiomorpholinyl)-9-fluoro-3-methyl-7-oxo-2,3-dihydro-7H-pyrido[3,2,1-ij]-1,3,4-benzoxadiazine-6-carboxylic acid]",MIC [20]: 0.2 µg/mL
3.13 µg/mL,6.25 µg/mL,12.5 µg/mL,6.25 µg/mL,12.5 µg/mL,12.5 µg/mL,100 µg/mL,100 µg/mL,0.39 µg/mL,0.39 µg/mL,0.78 µg/mL,1.56 µg/mL,0.39 µg/mL,1.56 µg/mL,50 µg/mL,3.13 µg/mL,0.78 µg/mL,3.13 µg/mL,50 µg/mL,3.13 µg/mL,"CN1COc2c(N3CCN(C(=O)CCC(=O)O)CC3)c(F)cc3c(=O)c(C(=O)O)cn1c23 [Example 49, 10-[4-(3-carboxypropionyl)-1-piperazinyl]-9-fluoro-3-methyl-7-oxo-2,3-dihydro-7H-pyrido[3,2,1-ij]-1,3,4-benzoxadiazine-6-carboxylic acid]",MIC [20]: 0.39 µg/mL
